This passage reports IC50 results from patent US11634417B2 (Array BioPharma Inc., priority 2019, dated 2023).

One experiment deals with T1, full-length SHP2 (Homo sapiens, UniProt Q06124).
T1 construct: 1 nM full-length SHP2 (His6-tagged SHP2(2-527), recombinantly expressed in E. coli and purified in-house); His6; made in house; host or cells: E. coli
T1 sequence (Q06124 2-527): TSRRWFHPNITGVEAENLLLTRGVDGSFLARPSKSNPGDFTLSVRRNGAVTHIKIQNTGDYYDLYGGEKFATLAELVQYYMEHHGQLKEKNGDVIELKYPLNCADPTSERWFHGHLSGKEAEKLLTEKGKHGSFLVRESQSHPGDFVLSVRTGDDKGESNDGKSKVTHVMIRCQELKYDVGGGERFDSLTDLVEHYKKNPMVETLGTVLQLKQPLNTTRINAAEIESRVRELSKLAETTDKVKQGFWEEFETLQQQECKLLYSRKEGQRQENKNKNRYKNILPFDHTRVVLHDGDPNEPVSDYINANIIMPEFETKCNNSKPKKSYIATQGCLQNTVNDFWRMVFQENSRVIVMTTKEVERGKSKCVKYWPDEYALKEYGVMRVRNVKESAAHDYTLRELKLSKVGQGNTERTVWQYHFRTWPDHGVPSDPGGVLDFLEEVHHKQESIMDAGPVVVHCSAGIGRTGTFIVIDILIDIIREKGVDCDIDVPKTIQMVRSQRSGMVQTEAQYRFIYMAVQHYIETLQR
Briefly: SHP2 enzymatic assay (fluorescence intensity kinetic assay, DiFMUP hydrolysis). The experiment is classed as biochemical. The following applies: 1 nM His6-tagged SHP2(2-527), 1 μM activating peptide, 50 μM DiFMUP; single assay or mean of multiple assays; read-out: Biological Example 1 IC50. How it is done:
A fluorescence intensity kinetic assay was configured for full-length SHP2 that monitors the amount of 6,8-difluoro-7-hydroxy-4-methylcoumarin (“DiFMU”) formed upon hydrolysis of 6,8-difluoro-4-methylumbelliferyl phosphate (“DiFMUP”) by SHP2. […] Low control wells lacked enzyme. The assays were initiated by the addition of a mixture of SHP2 and the activating peptide, and following a 15 second mix on an orbital shaker, were read in kinetic mode for 15 minutes (30 seconds/cycle) at ambient temperature on a PerkinElmer EnVision microplate reader (kEx=355 nm, kEm=460 nm). Initial velocities (slopes of the tangents at t=0) were estimated from exponential fits to the slightly nonlinear progress curves and then were converted to percent of control (“POC”) using the following equation:
[formula] • Where: xmax Average Uninhibited Controls • Xmin Average Background A 4-parameter logistic model was the fit to the POC data for each compound. From that fit, the IC50 was estimated and is defined as the concentration of compound at which the curve crosses 50 POC.

The test system of experiment [1] is ERK1/2 (Thr202/Tyr204) phosphorylation in KYSE520 cells. In words: Cellular Phospho-p44/42 MAPK (Erk1/2) (Thr202/Tyr204) assay, In-Cell Western. The experiment is classed as cell-based. To be noted: Homo sapiens. How it is done:
Inhibition of ERK1/2 (Thr202/Tyr204) phosphorylation was determined by the following cellular assay, which comprises incubating cells with a compound for 1 hour and quantifying pERK signal by In-Cell Western on fixed cells and normalizing to GAPDH signal. KYSE520 cells were obtained from DSMZ and grown in RPMI supplemented with 10% fetal bovine serum, penicillin/streptomycin, 2 mM L-alanyl-L-glutamine dipeptide in 0.85% NaCl (Glutamax™), non-essential amino acids, and sodium pyruvate. Cells were plated in 96-well plates at 30,000 cells/well and allowed to attach overnight at 37° C./5% CO2. Cells were treated with compounds prepared as a 10-point, 1:3 dilution series (range: 20 μM-1 nM), with a final DMSO concentration of 0.5%. After 1 hour incubation, cells were fixed in 3.7% formaldehyde in Dulbecco's phosphate-buffered saline (“dPBS”) at room temperature for 20 minutes. Cells were then washed with dPBS and permeabilized in 100% MeOH at room temperature for 10 minutes. Following permeabilization, cells were washed in dPBS and incubated in LI-COR Blocking Buffer (LI-COR Biosciences, Cat #927-40000) for 1 hour or longer. Plates were then incubated with an antibody specific for the MEK-dependent ERK1/2 phosphorylation sites, threonine 202 and tyrosine 204 (Cell Signaling Technologies; Cat #9101), downstream of SHP2 in the MAP kinase signal transduction pathway, as well as GAPDH (Millipore; Cat #MAB374). pErk1/2 (Thr202/Tyr204) antibody was diluted in LI-COR blocking buffer containing 0.05% polysorbate-20 (Tween-20) at 1:250; GAPDH was diluted at 1:2,500. The plates were incubated overnight at 4° C. After washing with PBS/0.05% Tween-20, the cells were incubated with fluorescently-labeled secondary antibodies (Anti-rabbit-Alexa Flour680, Invitrogen Cat #A21109; Anti-mouse-IRDye800CW, Li-cor Bioscieces Cat #926-32210, both at 1:1000 dilution) for 1 hour. Cells were then washed, as above, and analyzed for fluorescence at both 680 nm and 800 nm wavelengths using the Aerius Infrared Imaging System (LI-COR Biosciences, Model 9250). Phosphorylated Erk1/2 ([…]) signal was normalized to GAPDH signal for each well. IC50 values were calculated from the normalized values using a 4-parameter fit in BioAssay software. The reported IC50 in Table 2 may be from a single assay or the mean of multiple assays.

Setting [2] is: KYSE-520, KYSE520 cells, 1 hour incubation, pERK signal normalized to GAPDH, single assay or mean of multiple assays, read-out: Biological Example 2 IC50.
The mark [3] stands for this setting: KYSE-520, 1 h, read-out: Biological Example 2 IC50 (nM).

Structures are written as SMILES. Like-named read-outs stand apart in the source and are kept apart here.

With `CNc1nccc(Sc2cnc(N3CCC4(CC3)Cc3cc(C#N)ccc3[C@H]4N)nn2)c1Cl` (single isomer, unassigned) [Example 41], the IC50 – broadly, the point on the concentration scale where inhibition reaches its midpoint – is 79 nM on full-length SHP2 and 19 nM in experiment [1] (setting [2]). As to `CNc1nccc(Sc2cnc(N3CCC4(CC3)Cc3cc(C#N)ccc3[C@@H]4N)nn2)c1Cl` (single isomer, unassigned) [Example 42], the figures for the IC50 (on full-length SHP2; in experiment [1] (setting [2])) were 209 nM and 813 nM, respectively. As for `COc1cnc2c(c1)[C@H](N)C1(CCN(c3ncc(Sc4ccnc(N)c4Cl)nn3)CC1)C2` (single isomer, unassigned) [Example 43], the results for the IC50 (at full-length SHP2; in experiment [1] (setting [2])) were 142 nM and 509 nM, respectively. `COc1cnc2c(c1)[C@@H](N)C1(CCN(c3ncc(Sc4ccnc(N)c4Cl)nn3)CC1)C2` (single isomer, unassigned) [Example 44]: the IC50 at full-length SHP2 was 37 nM; in experiment [1] (setting [2]) it was 4 nM.

As for `C[C@@H]1OCC2(CCN(c3ncc(Sc4ccnc(N)c4Cl)nn3)CC2)[C@@H]1N` [Example 1, (3S,4S)-8-(6-((2-amino-3-chloropyridin-4-yl)thio)-1,2,4-triazin-3-yl)-3-methyl-2-oxa-8-azaspiro[4.5]decan-4-amine], the values for the IC50 (on full-length SHP2; in experiment [1] (setting [2])) were 59 nM and 55 nM, respectively. Turning to `C[C@@H]1OCC2(CCN(c3ncc(-c4cccc(Cl)c4Cl)nn3)CC2)[C@@H]1N` [Example 2, (3S,4S)-8-(6-(2,3-dichlorophenyl)-1,2,4-triazin-3-yl)-3-methyl-2-oxa-8-azaspiro[4.5]decan-4-amine], the IC50 on full-length SHP2 was determined as 76 nM; in experiment [1] (setting [2]) it was 2780 nM. On to `Nc1nccc(Sc2cnc(N3[C@H]4CC[C@H]3CC(N)C4)nn2)c1Cl` (stereo partly drawn) [Example 3, (1R,3s,5S)-8-(6-((2-amino-3-chloropyridin-4-yl)thio)-1,2,4-triazin-3-yl)-8-azabicyclo[3.2.1]octan-3-amine], for which the IC50 at full-length SHP2 turned out to be 626 nM; in experiment [1] (setting [2]) it was 1290 nM.

For the compound `Cc1nc(N2CCC3(CC2)CO[C@@H](C)[C@H]3N)nnc1Sc1ccnc(N)c1Cl` [Example 4, (3S,4S)-8-(6-((2-amino-3-chloropyridin-4-yl)thio)-5-methyl-1,2,4-triazin-3-yl)-3-methyl-2-oxa-8-azaspiro[4.5]decan-4-amine], the values for the IC50 (on full-length SHP2; in experiment [1] (setting [2])) were 114 nM and 519 nM, respectively.

Turning to `Cc1nc(N2CCC3(CC2)CO[C@@H](C)[C@H]3N)nnc1-c1cccc(Cl)c1Cl` [Example 5, (3S,4S)-8-(6-(2,3-dichlorophenyl)-5-methyl-1,2,4-triazin-3-yl)-3-methyl-2-oxa-8-azaspiro[4.5]decan-4-amine], the half-maximal inhibitory concentration (IC50) on full-length SHP2 was 28 nM; in experiment [1] (setting [2]) it was 337 nM. For `Nc1nccc(Sc2cnc(N3CCC4(CC3)Cc3ccccc3[C@H]4N)nn2)c1Cl` [Example 6, (S)-1′-(6-((2-amino-3-chloropyridin-4-yl)thio)-1,2,4-triazin-3-yl)-1,3-dihydrospiro[indene-2,4′-piperidin]-1-amine], the half-inhibitory concentration (IC50) in experiment [1] (setting [3]) was found to be 2 nM. As to `C[C@@H]1OCC2(CCN(c3ncc(Sc4cccc(Cl)c4Cl)nn3)CC2)[C@@H]1N` [Example 7, (3S,4S)-8-(6-((2,3-dichlorophenyl)thio)-1,2,4-triazin-3-yl)-3-methyl-2-oxa-8-azaspiro[4.5]decan-4-amine], the results for the IC50 (on full-length SHP2; in experiment [1] (setting [2])) were 17 nM and 89 nM, respectively. With `N[C@@H]1c2ccccc2CC12CCN(c1ncc(N3CCc4cnccc43)nn1)CC2` [Example 15, (S)-1′-(6-(2,3-dihydro-1H-pyrrolo[3,2-c]pyridin-1-yl)-1,2,4-triazin-3-yl)-1,3-dihydrospiro[indene-2,4′-piperidin]-1-amine], the IC50 at full-length SHP2 turned out to be 7950 nM. In the case of `Nc1nccc(Sc2cnc(N3CCC4(CC3)Cc3ccccc3[C@@H]4N)nn2)c1Cl` [Example 20, (R)-1′-(6-((2-amino-3-chloropyridin-4-yl)thio)-1,2,4-triazin-3-yl)-1,3-dihydrospiro[indene-2,4′-piperidin]-1-amine], the IC50 in experiment [1] (setting [3]) is 206 nM. With `C[C@@H]1OCC2(CCN(c3ncc(Sc4ccnc(N)c4F)nn3)CC2)[C@@H]1N` [Example 21, (3S,4S)-8-(6-((2-amino-3-fluoropyridin-4-yl)thio)-1,2,4-triazin-3-yl)-3-methyl-2-oxa-8-azaspiro[4.5]decan-4-amine], the IC50 on full-length SHP2 stood at 11100 nM. For the compound `N[C@@H]1c2ccccc2CC12CCN(c1ncc([Se]c3ccccc3)nn1)CC2` [Example 40, (S)-1′-(6-(phenylselanyl)-1,2,4-triazin-3-yl)-1,3-dihydrospiro[indene-2,4′-piperidin]-1-amine], the IC50 at full-length SHP2 is 8 nM.

`C[C@@H]1OCC2(CCN(c3ncc(Sc4ccc(N)nc4C(F)(F)F)nn3)CC2)[C@@H]1N` [Example 56, (3S,4S)-8-(6-((6-amino-2-(trifluoromethyl)pyridin-3-yl)thio)-1,2,4-triazin-3-yl)-3-methyl-2-oxa-8-azaspiro[4.5]decan-4-amine]: the IC50 on full-length SHP2 stood at 1370 nM. With `N[C@@H]1c2ccccc2CC12CCN(c1ncc(Sc3cnc4ncccn34)nn1)CC2` [Example 68, (S)-1′-(6-(imidazo[1,2-a]pyrimidin-3-ylthio)-1,2,4-triazin-3-yl)-1,3-dihydrospiro[indene-2,4′-piperidin]-1-amine], the IC50 at full-length SHP2 was found to be 33 nM. On to `N[C@@H]1c2ccccc2CC12CCN(c1ncc(Oc3cnc4[nH]ccc4c3)nn1)CC2` [Example 72, (S)-1′-(6-((1H-pyrrolo[2,3-b]pyridin-5-yl)oxy)-1,2,4-triazin-3-yl)-1,3-dihydrospiro[indene-2,4′-piperidin]-1-amine], for which the IC50 at full-length SHP2 amounted to 16400 nM. On to `[2H][C@@]1(N)c2ccccc2CC12CCN(c1ncc(Sc3ccnc(N)c3Cl)nn1)CC2` [Example 74, (S)-1′-(6-((2-amino-3-chloropyridin-4-yl)thio)-1,2,4-triazin-3-yl)-1,3-dihydrospiro[indene-2,4′-piperidin]-1-d-1-amine], for which the IC50 in experiment [1] (setting [3]) was 1 nM. For the compound `[2H][C@]1(N)c2ccccc2CC12CCN(c1ncc(Sc3ccnc(N)c3Cl)nn1)CC2` [Example 75, (R)-1′-(6-((2-amino-3-chloropyridin-4-yl)thio)-1,2,4-triazin-3-yl)-1,3-dihydrospiro[indene-2,4′-piperidin]-1-d-1-amine], the IC50 in experiment [1] (setting [3]) is 100 nM. Regarding `Nc1nccc(Sc2cnc(N3C4CCC3CC3(Cc5ccccc5[C@H]3N)C4)nn2)c1Cl` (stereo partly drawn) [Example 78, (1′S)-8-(6-((2-amino-3-chloropyridin-4-yl)thio)-1,2,4-triazin-3-yl)-1′,3′-dihydro-8-azaspiro[bicyclo[3.2.1]octane-3,2′-inden]-1′-amine], on full-length SHP2, the IC50 was 15000 nM.
